Earlier results, collected in publication PMC10801393 (Clinical and Translational Science, 2024).
Like-named read-outs stand apart in the source and are kept apart here.

Tests used:
[1] = tamoxifen 20 mg/day
[2] = not given; remark: listed apart in the source

CC/C(=C(\c1ccccc1)c1ccc(OCCN(C)C)cc1)c1ccccc1 [tamoxifen, Tamoxifen]
steady‐state plasma concentration (C ss) ([1]; postmenopausal patients): 201.23 ng/mL | steady‐state plasma concentration (C ss) ([1]; premenopausal patients): 116.95 ng/mL

Cc1ncc2n1-c1ccc(Cl)cc1C(c1ccccc1F)=NC2 [midazolam]
oral clearance geometric mean (postmenopausal group): 24.10 mL/min/kg | oral clearance geometric mean (premenopausal group): 30.09 mL/min/kg

CC(C)(C(=O)O)c1ccc(C(O)CCCN2CCC(C(O)(c3ccccc3)c3ccccc3)CC2)cc1 (centres unmarked) [fexofenadine, Fexofenadine]
BDDCS class [2]: class 3
